According to PMC9029089, “1,5-Disubstituted Acylated 2-Amino-4,5-dihydroimidazoles as a New Class of Retinoic Acid Receptor–Related Orphan Receptor (ROR) Inhibitors” (International Journal of Molecular Sciences, 2022):

Target: T1, RORγ (Mus musculus, UniProt P51450)
T1 construct: mRORγ (Pro-261-end); expressed in transfected cells
T1 sequence (P51450 261-516 limits assumed): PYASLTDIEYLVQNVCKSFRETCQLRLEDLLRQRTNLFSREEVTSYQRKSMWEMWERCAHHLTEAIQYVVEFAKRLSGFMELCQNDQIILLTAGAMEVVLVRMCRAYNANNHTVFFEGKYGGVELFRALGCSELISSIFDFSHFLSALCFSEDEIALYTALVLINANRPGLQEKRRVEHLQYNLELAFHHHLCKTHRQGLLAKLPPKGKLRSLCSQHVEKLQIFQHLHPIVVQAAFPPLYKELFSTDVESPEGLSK
Test: Gal4-RORγ-LBD UAS-luciferase reporter assay in TRex-CHO-K1 cells (doxycycline-stimulated)
Type: cell-based
Conditions: IC50 (μM) (N=4) RORγ, individual controls of library 1295, second confirmatory dose response, Figure 2
Text: (§1) The Gal4-DBD-ROR-LBD fusion proteins were subcloned in the pcDNA4/TO expression vector (Thermo Scientific) and transfected into TRex-CHO-K1 cells (Thermo Scientific) for tetracycline-controlled expression of the corresponding ROR proteins. Transfected cells were selected with hygromycin and Zeocin and individual clones for each of the Gal4-RORγ, Gal4-RORα, and Gal4-RORβ cell lines were isolated using a standard serial dilution protocol. Clones with the highest doxycycline-dependent stimulation of luciferase activity were selected for all functional experiments.
(§2) For screening FIU libraries, cells were resuspended in Ham’s F-12 assay medium containing 2% charcoal-treated FBS and no selection drugs. […] Cells were allowed to attach for 2 h, followed by compound treatment and stimulation with 20 ng/mL doxycycline for an additional 16–20 h. Appropriate solvent controls, negative controls with no doxycycline, and blanks with no cells were included in every plate. Prior to measuring luciferase activity, 6 µL of 0.15 mg/mL resazurin (Cayman Chemical) in PBS were added and cells were incubated for 1 h at 37 °C. Fluorescence intensity was detected at 545 nm excitation/590 nm emission using a CLARIOstar reader (BMGLabtech) as a measure of cell viability, to identify any potential cytotoxic effect of test compounds and mixtures.
(§3) Luminescence was normalized by the fluorescence intensity and the percentage of inhibition was calculated with respect to control cells stimulated with doxycycline in the presence of solvent control (0.1% DMF). All primary screens with individual compounds were performed in triplicate with a final concentration of 5 µg/mL. […] IC50 values were calculated using GraphPrism (GraphPad software).

SMILES	IC50 [µM]
O=C(CC1CCCCC1)NC1=NC[C@H](Cc2ccccc2)N1CCc1ccccc1 [1295.299]	8.4 ± 1.5
O=C(Cc1ccccc1)NC1=NC[C@H](Cc2ccccc2)N1CCC1CCCCC1 [1295.261]	17.2 ± 1.6

Same assay, conditions: IC50 (μM, N=4) ROR-Gamma, library 2520

IC50 [µM]	SMILES
4.36 ± 0.2	CCOc1ccc(C[C@H]2CN=C(NC(=O)C(CC)c3ccccc3)N2CC2CCCCC2)cc1 (stereo partly shown) [2520.39]
4.68 ± 0.2	CCOc1ccc(C[C@H]2CN=C(NC(=O)C(CC)c3ccccc3)N2CCC2CC3CCC2C3)cc1 (stereo partly shown) [2520.47]
3.95 ± 0.3	CCC(C(=O)NC1=NC[C@H](Cc2ccccc2)N1CCC(C)c1ccccc1)c1ccccc1 (stereo partly shown) [2520.31]

Same assay, conditions: RORγ : IC50, Figure 6, confirmatory experiment, N = 4

IC50 [µM]	SMILES
4.3 ± 0.2	CCOc1ccc(C[C@H]2CN=C(NC(=O)C(CC)c3ccccc3)N2CC2CCCCC2)cc1 (stereo partly shown) [2520.39]
4.6 ± 0.2	CCOc1ccc(C[C@H]2CN=C(NC(=O)C(CC)c3ccccc3)N2CCC2CC3CCC2C3)cc1 (stereo partly shown) [2520.47]
3.9 ± 0.3	CCC(C(=O)NC1=NC[C@H](Cc2ccccc2)N1CCC(C)c1ccccc1)c1ccccc1 (stereo partly shown) [2520.31]

Same assay, conditions: T-REx-CHO-K1, read-out: % Inhibition RORγ 5 μg/ml

inhibition at 5 µg/mL [%]	SMILES
103	O=C(Cc1ccccc1)NC1=NC[C@H](Cc2ccccc2)N1CCCC1CCCCC1 [1295.268]
95.9	O=C(Cc1ccccc1)NC1=NC[C@H](Cc2ccccc2)N1CCC1CCCCC1 [1295.261]

SMILES	inhibition at 5 µg/mL [%]
O=C(CC1CCCCC1)NC1=NC[C@H](Cc2ccccc2)N1CCc1ccccc1 [1295.299]	89.6

Same assay, conditions: individual controls of library 1295, second confirmatory dose response, Figure 2

IC50 [µM]	SMILES
6.2 ± 0.6	O=C(Cc1ccccc1)NC1=NC[C@H](Cc2ccccc2)N1CCCC1CCCCC1 [1295.268]

Target: T2, RORα (Homo sapiens, UniProt P35398)
T2 construct: hRORα (Pro-211-end); expressed in transfected cells
T2 sequence (P35398 266-523): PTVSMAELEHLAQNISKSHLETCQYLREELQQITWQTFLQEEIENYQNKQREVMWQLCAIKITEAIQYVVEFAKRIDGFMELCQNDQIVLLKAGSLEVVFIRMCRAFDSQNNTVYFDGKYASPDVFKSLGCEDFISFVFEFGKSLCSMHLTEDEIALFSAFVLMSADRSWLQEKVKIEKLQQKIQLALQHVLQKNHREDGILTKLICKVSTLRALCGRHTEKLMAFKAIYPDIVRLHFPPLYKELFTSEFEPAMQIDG
Test: Gal4-RORα-LBD UAS-luciferase reporter assay in TRex-CHO-K1 cells (doxycycline-stimulated)
Type: cell-based
Conditions: IC50 (μM) (N=4) RORα, individual controls of library 1295, second confirmatory dose response, Figure 2
Text: as §1, §2, §3

IC50 [µM]	SMILES
10.1 ± 0.4	O=C(Cc1ccccc1)NC1=NC[C@H](Cc2ccccc2)N1CCCC1CCCCC1 [1295.268]
15.3 ± 1.7	O=C(Cc1ccccc1)NC1=NC[C@H](Cc2ccccc2)N1CCC1CCCCC1 [1295.261]

SMILES	IC50 [µM]
O=C(CC1CCCCC1)NC1=NC[C@H](Cc2ccccc2)N1CCc1ccccc1 [1295.299]	14.1 ± 1.6

Same assay, conditions: IC50 (μM, N=4) ROR-Alpha, library 2520

IC50 [µM]	SMILES
6.36 ± 0.3	CCOc1ccc(C[C@H]2CN=C(NC(=O)C(CC)c3ccccc3)N2CC2CCCCC2)cc1 (stereo partly shown) [2520.39]
7.2 ± 0.4	CCOc1ccc(C[C@H]2CN=C(NC(=O)C(CC)c3ccccc3)N2CCC2CC3CCC2C3)cc1 (stereo partly shown) [2520.47]
6.82 ± 0.4	CCC(C(=O)NC1=NC[C@H](Cc2ccccc2)N1CCC(C)c1ccccc1)c1ccccc1 (stereo partly shown) [2520.31]

Same assay, conditions: RORα : IC50, Figure 6, confirmatory experiment, N = 4

IC50 [µM]	SMILES
6.3 ± 0.3	CCOc1ccc(C[C@H]2CN=C(NC(=O)C(CC)c3ccccc3)N2CC2CCCCC2)cc1 (stereo partly shown) [2520.39]
6.8 ± 0.4	CCC(C(=O)NC1=NC[C@H](Cc2ccccc2)N1CCC(C)c1ccccc1)c1ccccc1 (stereo partly shown) [2520.31]

Target: T3, RORβ (Rattus norvegicus, UniProt P45446)
T3 construct: rRORβ (Pro 205-end); expressed in transfected cells
T3 sequence (P45446 205-459 isoform P45446-1): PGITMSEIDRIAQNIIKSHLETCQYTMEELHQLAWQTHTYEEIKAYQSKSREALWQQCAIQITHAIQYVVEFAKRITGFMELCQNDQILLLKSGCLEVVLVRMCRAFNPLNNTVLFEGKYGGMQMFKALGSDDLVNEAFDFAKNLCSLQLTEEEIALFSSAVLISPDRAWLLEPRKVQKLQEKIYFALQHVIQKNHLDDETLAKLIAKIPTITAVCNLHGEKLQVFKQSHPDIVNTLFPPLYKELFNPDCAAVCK
Test: Gal4-RORβ-LBD UAS-luciferase reporter assay in TRex-CHO-K1 cells (doxycycline-stimulated)
Type: cell-based
Conditions: Figure 6, confirmatory experiment, N = 4; read-out: RORβ : IC50
Text: To investigate the transcriptional activity of all three RORs, we generated stable cell lines expressing an UAS-driven luciferase reporter together with the corresponding Gal4-DNA binding domain fused to the ligand binding domains (LBDs) of mRORγ (Pro-261-end), hRORα (Pro-211-end), or rRORβ (Pro 205-end). The Gal4-DBD-ROR-LBD fusion proteins were subcloned in the pcDNA4/TO expression vector (Thermo Scientific) and transfected into TRex-CHO-K1 cells (Thermo Scientific) for tetracycline-controlled expression of the corresponding ROR proteins. Transfected cells were selected with hygromycin and Zeocin and individual clones for each of the Gal4-RORγ, Gal4-RORα, and Gal4-RORβ cell lines were isolated using a standard serial dilution protocol. Clones with the highest doxycycline-dependent stimulation of luciferase activity were selected for all functional experiments. All cell lines were maintained in complete Ham’s F12 medium containing 10% fetal bovine serum (FBS), 10 µg/mL blasticidine, 100 µg/mL hygromycin, and 100 µg/mL Zeocin and were used within 2 months of culture without any loss of doxycycline-dependent stimulation of luciferase activity.
For screening FIU libraries, cells were resuspended in Ham’s F-12 assay medium containing 2% charcoal-treated FBS and no selection drugs. Ten thousand cells per well were seeded in 30 µL of assay medium in 384 white plates with clear bottom (Greiner). Cells were allowed to attach for 2 h, followed by compound treatment and stimulation with 20 ng/mL doxycycline for an additional 16–20 h. Appropriate solvent controls, negative controls with no doxycycline, and blanks with no cells were included in every plate. Prior to measuring luciferase activity, 6 µL of 0.15 mg/mL resazurin (Cayman Chemical) in PBS were added and cells were incubated for 1 h at 37 °C. Fluorescence intensity was detected at 545 nm excitation/590 nm emission using a CLARIOstar reader (BMGLabtech) as a measure of cell viability, to identify any potential cytotoxic effect of test compounds and mixtures. Following the resazurin assay, the medium was removed and 20 µL of BriteLite-Plus luciferase reagent (Perking Elmer) were added; luminescence was measured in a CLARIOstar reader using a 384 aperture spoon and a 0.1 sec measuring time interval.
as §3

IC50 [µM]	SMILES
5.3 ± 0.4	CCOc1ccc(C[C@H]2CN=C(NC(=O)C(CC)c3ccccc3)N2CC2CCCCC2)cc1 (stereo partly shown) [2520.39]
6.6 ± 0.4	CCOc1ccc(C[C@H]2CN=C(NC(=O)C(CC)c3ccccc3)N2CCC2CC3CCC2C3)cc1 (stereo partly shown) [2520.47]

Same assay, conditions: IC50 (μM) (N=4) RORβ, individual controls of library 1295, second confirmatory dose response, Figure 2

IC50 [µM]	SMILES
10.4 ± 0.8	O=C(Cc1ccccc1)NC1=NC[C@H](Cc2ccccc2)N1CCCC1CCCCC1 [1295.268]
17.1 ± 2.6	O=C(Cc1ccccc1)NC1=NC[C@H](Cc2ccccc2)N1CCC1CCCCC1 [1295.261]

SMILES	IC50 [µM]
O=C(CC1CCCCC1)NC1=NC[C@H](Cc2ccccc2)N1CCc1ccccc1 [1295.299]	12.7 ± 4.2

Same assay, conditions: IC50 (μM, N=4) ROR-Beta, library 2520

IC50 [µM]	SMILES
5.34 ± 0.4	CCOc1ccc(C[C@H]2CN=C(NC(=O)C(CC)c3ccccc3)N2CC2CCCCC2)cc1 (stereo partly shown) [2520.39]
6.67 ± 0.4	CCOc1ccc(C[C@H]2CN=C(NC(=O)C(CC)c3ccccc3)N2CCC2CC3CCC2C3)cc1 (stereo partly shown) [2520.47]
5.5 ± 0.3	CCC(C(=O)NC1=NC[C@H](Cc2ccccc2)N1CCC(C)c1ccccc1)c1ccccc1 (stereo partly shown) [2520.31]

Target: T1, RORγ
Test: Gal4-RORγ-LBD UAS-luciferase reporter assay in TRex-CHO-K1 cells (doxycycline-stimulated)
Type: cell-based
Conditions: T-REx-CHO-K1, library 2520, RORγ cells, read-out: % Inhibition at 4 μM (N=3)

inhibition at 4 µM [%]	SMILES
73.2	CCOc1ccc(C[C@H]2CN=C(NC(=O)C(CC)c3ccccc3)N2CC2CCCCC2)cc1 (stereo partly shown) [2520.39]
51.3	CCOc1ccc(C[C@H]2CN=C(NC(=O)C(CC)c3ccccc3)N2CCC2CC3CCC2C3)cc1 (stereo partly shown) [2520.47]
70.5	CCC(C(=O)NC1=NC[C@H](Cc2ccccc2)N1CCC(C)c1ccccc1)c1ccccc1 (stereo partly shown) [2520.31]
